pIC50: −log10 of the molar value. Where two headings read alike, the source gives them in different places.
Tests used:
Assay type in all cases: cell-based, human
MX-1 (breast carcinoma) = experiment: Cytotoxicity/growth inhibition assay, MX-1; details: read-out: IC50 (MX-1)
Text: (§1) The human cancer cell lines DLD-1 (colorectal adenocarcinoma), LNCap (prostate carcinoma), and OVCAR-3 (ovarian carcinoma) were obtained from the American Type Culture Collection, Manassas, Va., U.S.A., and HL-60 (promyeloid myelocytic leukemia), MX-1 (breast carcinoma), P388, and P388ADR from the National Cancer Institute, Bethesda, Md., U.S.A. Carboplatin, doxorubicin, and melphalan were obtained from Sigma-Aldrich Chemical Company, St. Louis, Mo., U.S.A. The CellTiter-Glo assay kit was obtained from Promega Corporation, Madison, Wis., U.S.A., and the Cellular DNA Cytometric Analysis Reagent Kit from Roche Diagnostics Corporation, Indianapolis, Ind., U.S.A. Lambda DNA was obtained from New England Biolabs, Beverly, Mass., U.S.A., and SYBR-Gold from Molecular Probes, Inc., Eugene, Oreg., U.S.A. The DNeasy Tissue Kit was obtained from Qiagen Inc., Valencia, Calif., U.S.A., and AmpliTaq Gold DNA polymerase and PCR reagents from Applied Biosystems, Foster City, Calif., U.S.A. All products were used in accordance with manufacturer's directions. All assays were conducted in triplicate wells, with dimethyl sulfoxide (DMSO) solvent control. The extent of cell growth was expressed as a percentage of the signal from the solvent control wells.
(§2) Log-phase cells were trypsinized, collected by centrifugation, and resuspended in a small volume of fresh medium, and the density of viable cells was determined following Trypan Blue staining. Cells were diluted in fresh media (3×10^3 cells/mL for MX-1, 3×10^3 cells/mL for DLD-1, and 6×10^3 cells/mL for LNCap cells), the test compounds (concentrations between 0.1 and 200 μM, dissolved in DMSO, 50 μL) added immediately after dilution to achieve a final DMSO concentration of 0.5%, then the suspensions added at 150 μL/well to 96-well plates, and incubated for several hours to allow attachment in the case of adherent cells. The cells were cultured for approximately three doubling times (3 days for MX-1 and 4 days for DLD-1 and LNCap). The cells were then collected by centrifugation, and 100 μL of the culture supernatant was replaced by the CellTiter-Glo reagent. After incubation for 15 minutes at room temperature, and the plate was read with a luminometer.

[1] = system: DLD-1 (colorectal adenocarcinoma); experiment: Cytotoxicity/growth inhibition assay, DLD-1; details: read-out: IC50 (DLD-1)
Text: as §1, §2

[2] = system: LNCap (prostate carcinoma); experiment: Cytotoxicity/growth inhibition assay, LNCap; details: LNCap cells, 4 days culture, CellTiter-Glo, 0.1-200 μM tested; read-out: IC50 (LNCap)
Text: as §1, §2

[3] = MX-1 cells, 3 days culture, CellTiter-Glo, 0.1-200 μM tested
[4] = DLD-1 cells, 4 days culture, CellTiter-Glo, 0.1-200 μM tested

SMILES	pIC50 (MX-1 (breast carcinoma); [3])	pIC50 [1, 4]	pIC50 [2]	pIC50 (MX-1 (breast carcinoma); Homo sapiens, MX1, 72 h)	pIC50 ([1]; Homo sapiens, DLD-1, 96 h)
CC(C)(C(N)C(=O)O)S(=O)(=O)CCOP(=O)(N(CCCl)CCCl)N(CCCl)CCCl (stereo not drawn) [Compound 75A]	4.48	5.12	3.73	–	–
N[C@@H](CS(=O)(=O)CCOP(=O)(N(CCCl)CCCl)N(CCCl)CCCl)C(=O)N1CCN(C(=O)c2ccco2)CC1 [Compound 90A]	4.62	4.98	≤ 3.70	–	–
O=P(OCCS(=O)(=O)c1ccc(Cl)c(Cl)c1)(N(CCCl)CCCl)N(CCCl)CCCl [Compound 112A]	6.00	6.10	5.20	–	–
CC(C)NC(=O)[C@@H](N)CS(=O)(=O)CCOP(=O)(N(CCCl)CCCl)N(CCCl)CCCl [Compound 89A]	4.65	5.07	3.85	–	–
CC(C)(C)c1ccc(CS(=O)(=O)CCOP(=O)(N(CCCl)CCCl)N(CCCl)CCCl)cc1 [Compound 137A]	5.77	6.10	4.65	–	–
CC(C)(C)S(=O)(=O)CCOP(=O)(N(CCCl)CCCl)N(CCCl)CCCl [Compound 7A]	4.69	4.66	3.78	–	–
COC(=O)[C@H](CS(=O)(=O)CCOP(=O)(N(CCCl)CCCl)N(CCCl)CCCl)NS(=O)(=O)c1ccc(Cl)cc1 [Compound 81A]	4.48	5.16	4.06	–	–
CN(CC(=O)OC(C)(C)C)C(=O)CS(=O)(=O)CCOP(=O)(N(CCCl)CCCl)N(CCCl)CCCl [Compound 28A]	5.05	5.29	4.45	–	–
O=C(c1ccc(CS(=O)(=O)CCOP(=O)(N(CCCl)CCCl)N(CCCl)CCCl)cc1)N1CCOCC1 [Compound 154A]	5.26	5.24	4.58	–	–
NC(=O)CC(NC(=O)CS(=O)(=O)CCOP(=O)(N(CCCl)CCCl)N(CCCl)CCCl)C(=O)O (stereo not drawn) [Compound 65A]	4.50	4.67	–	–	–
O=C(CS(=O)(=O)CCOP(=O)(N(CCCl)CCCl)N(CCCl)CCCl)Nc1ccc(C(=O)O)cc1 [Compound 33A]	4.69	5.07	4.01	–	–
O=P(OCCS(=O)(=O)c1ncnc2[nH]cnc12)(N(CCCl)CCCl)N(CCCl)CCCl [Compound 125A]	4.65	5.11	4.35	–	–
COC(=O)c1ccc(NC(=O)CS(=O)(=O)CCOP(=O)(N(CCCl)CCCl)N(CCCl)CCCl)cc1 [Compound 30A]	5.04	5.19	4.88	–	–
CS(=O)(=O)CCC(NC(=O)CS(=O)(=O)CCOP(=O)(N(CCCl)CCCl)N(CCCl)CCCl)C(=O)O (stereo not drawn) [Compound 66A]	4.54	4.73	–	–	–
CC(NC(=O)CS(=O)(=O)CCOP(=O)(N(CCCl)CCCl)N(CCCl)CCCl)C(=O)OC(C)(C)C (stereo not drawn) [Compound 44A]	4.46	4.95	–	–	–
O=C(O)CNC(=O)CS(=O)(=O)CCOP(=O)(N(CCCl)CCCl)N(CCCl)CCCl [Compound 40A]	4.49	4.89	–	–	–
O=C(CCS(=O)(=O)CCOP(=O)(N(CCCl)CCCl)N(CCCl)CCCl)NC1CC1 [Compound 55A]	4.83	5.00	–	–	–
O=C(Nc1cccc(CS(=O)(=O)CCOP(=O)(N(CCCl)CCCl)N(CCCl)CCCl)c1)C1CCCNC1 (stereo not drawn) [Compound 148A]	≤ 3.70	≤ 3.70	–	–	–
CCNC(=O)CS(=O)(=O)CCOP(=O)(N(CCCl)CCCl)N(CCCl)CCCl [Compound 50A]	4.77	4.92	–	–	–
O=C(CCS(=O)(=O)CCOP(=O)(N(CCCl)CCCl)N(CCCl)CCCl)N1CCC(O)CC1 [Compound 59A]	4.60	4.82	–	–	–
O=C(CCS(=O)(=O)CCOP(=O)(N(CCCl)CCCl)N(CCCl)CCCl)NCCO [Compound 56A]	4.71	5.09	–	–	–

SMILES	pIC50 (MX-1 (breast carcinoma); [3])	pIC50 [1, 4]	pIC50 [2]	pIC50 (MX-1 (breast carcinoma); Homo sapiens, MX1, 72 h)	pIC50 ([1]; Homo sapiens, DLD-1, 96 h)
O=C(CS(=O)(=O)CCOP(=O)(N(CCCl)CCCl)N(CCCl)CCCl)NCCO [Compound 49A]	4.54	4.94	–	–	–
CC(NC(=O)CS(=O)(=O)CCOP(=O)(N(CCCl)CCCl)N(CCCl)CCCl)C(=O)O (stereo not drawn) [Compound 64A]	4.43	4.66	–	–	–
O=C(CCS(=O)(=O)CCOP(=O)(N(CCCl)CCCl)N(CCCl)CCCl)N1CCOCC1 [Compound 58A]	4.77	4.89	–	–	–
COC(=O)[C@H](CS(=O)(=O)CCOP(=O)(N(CCCl)CCCl)N(CCCl)CCCl)NS(C)(=O)=O [Compound 79A, N-(Methanesulfonyl)-3-[[2-[[bis[bis(2-chloroethyl)amino]phosphinyl]oxy]ethyl]sulfonyl]-L-alanine methyl ester]	–	–	–	4.06	4.58
CN(C)CCNC(=O)c1ccc(CS(=O)(=O)CCOP(=O)(N(CCCl)CCCl)N(CCCl)CCCl)cc1 [Compound 173A]	3.98	4.42	–	–	–
O=C(CS(=O)(=O)CCOP(=O)(N(CCCl)CCCl)N(CCCl)CCCl)N1CCC(O)CC1 [Compound 52A]	4.81	4.99	–	–	–
O=C(O)[C@@H]1CCCN1C(=O)CS(=O)(=O)CCOP(=O)(N(CCCl)CCCl)N(CCCl)CCCl [Compound 62A]	4.82	4.78	–	–	–
O=C(O)CCNC(=O)CS(=O)(=O)CCOP(=O)(N(CCCl)CCCl)N(CCCl)CCCl [Compound 39A]	4.51	4.88	–	–	–
O=C(CS(=O)(=O)CCOP(=O)(N(CCCl)CCCl)N(CCCl)CCCl)N1CCOCC1 [Compound 51A]	5.16	5.17	–	–	–
O=C(CS(=O)(=O)CCOP(=O)(N(CCCl)CCCl)N(CCCl)CCCl)N1CCN(CCO)CC1 [Compound 69A]	4.46	4.85	–	–	–
COCCNC(=O)CS(=O)(=O)CCOP(=O)(N(CCCl)CCCl)N(CCCl)CCCl [Compound 48A]	5.36	4.81	–	–	–
CC(C)(C)OC(=O)[C@@H]1CCCN1C(=O)CS(=O)(=O)CCOP(=O)(N(CCCl)CCCl)N(CCCl)CCCl [Compound 42A]	5.12	5.33	–	–	–
O=C(CS(=O)(=O)CCOP(=O)(N(CCCl)CCCl)N(CCCl)CCCl)NC1CC1 [Compound 60A]	4.95	5.13	–	–	–
NC(=O)C(CC(=O)O)NC(=O)CS(=O)(=O)CCOP(=O)(N(CCCl)CCCl)N(CCCl)CCCl (stereo not drawn) [Compound 61A]	4.51	4.70	–	–	–
COCCNC(=O)CCS(=O)(=O)CCOP(=O)(N(CCCl)CCCl)N(CCCl)CCCl [Compound 57A]	4.74	5.00	–	–	–
CNC(=O)CCS(=O)(=O)CCOP(=O)(N(CCCl)CCCl)N(CCCl)CCCl [Compound 53A]	4.95	5.08	–	–	–
CC(C)(C)OC(=O)CN1CCN(C(=O)CS(=O)(=O)CCOP(=O)(N(CCCl)CCCl)N(CCCl)CCCl)CC1 [Compound 47A]	4.80	5.03	–	–	–
CC(C)C(NC(=O)CS(=O)(=O)CCOP(=O)(N(CCCl)CCCl)N(CCCl)CCCl)C(=O)O (stereo not drawn) [Compound 63A]	5.00	4.76	–	–	–
CCNC(=O)CCS(=O)(=O)CCOP(=O)(N(CCCl)CCCl)N(CCCl)CCCl [Compound 54A]	5.03	5.13	–	–	–
O=C(CS(=O)(=O)CCOP(=O)(N(CCCl)CCCl)N(CCCl)CCCl)N1CCNCC1 [Compound 68A]	4.44	4.74	–	–	–
CC(C)(C)OC(=O)CC(NC(=O)CS(=O)(=O)CCOP(=O)(N(CCCl)CCCl)N(CCCl)CCCl)C(N)=O (stereo not drawn) [Compound 41A]	4.53	4.97	–	–	–

— US8093231B2, “Sulfonylethyl phosphorodiamidates” (Telik, Inc., priority 2004, dated 2012)
